Earlier results on 2 molecules are cited in publication PMC6915683, “Characterization of Maltase and Sucrase Inhibitory Constituents from Rhodiola crenulata” (Foods, 2019).

For data set [1], the system named is sucrase. The arrangement: method as in PMID 21765605. Conditions: kinetics analysis; cited from earlier work.
Details of data set [2]: method as in PMID 18756586. Conditions: daily consumption for three years, compared to control group not consuming acarbose; cited from earlier work.
In data set [3] the target is rat maltase. The arrangement: method as in PMID 28914528. The settings on record: cited from earlier work.
Data set [4] addresses rat sucrase. Also on record: method as in PMID 28914528. Conditions: cited from earlier work.

With `C[C@@H]1O[C@@H](OC[C@H]2O[C@@H](Oc3cc4c(O)cc(O)cc4[o+]c3-c3ccc(O)c(O)c3)[C@H](O)[C@@H](O)[C@@H]2O)[C@H](O)[C@H](O)[C@H]1O` [cyanidin-3-rutinoside], the “mode of inhibition of sucrase” value in data set [1] was “mixed-type manner”.

For orientation: IC50 means the point on the concentration scale where inhibition reaches its midpoint. As to `C[C@H]1O[C@H](O[C@H]2[C@H](O)[C@@H](O)[C@@H](O[C@H]3[C@H](O)[C@@H](O)C(O)O[C@@H]3CO)O[C@@H]2CO)[C@H](O)[C@@H](O)[C@@H]1N[C@H]1C=C(CO)[C@@H](O)[C@H](O)[C@H]1O` (stereo partly shown) [acarbose], the “reduction of the risk of developing type 2 diabetes” value in data set [2] is reported as 6%. Further, the IC50 in data set [3] was 0.42 ± 0.02 µM; in data set [4] it was 12.3 ± 0.6 µM.
